Measurements published in PubChem BioAssay (NCI).
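Five compound concentrations were applied to cells in 96-well plates for 48 hours; endpoints were derived by simple linear interpolation of the resulting dose-response curve. At the GI50, growth is halved. TGI: concentration producing complete growth inhibition.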

How the values were obtained:
Test in all cases: growth of human tumour cells (NCI), 48 h
HL-60(TB) leukemia = tested on: HL-60(TB) leukemia
NCI-H23 lung = tested on: NCI-H23 lung
786-0 renal = tested on: 786-0 renal
HOP-62 NSCLC = tested on: HOP-62 NSCLC
SK-OV-3 ovarian = tested on: SK-OV-3 ovarian
HCT-15 colon = tested on: HCT-15 colon
SK-MEL-28 melanoma = tested on: SK-MEL-28 melanoma
SK-MEL-2 melanoma = tested on: SK-MEL-2 melanoma
A498 renal = tested on: A498 renal
MOLT-4 leukemia = tested on: MOLT-4 leukemia
HCT-116 colon = tested on: HCT-116 colon
PC-3 prostate = tested on: PC-3 prostate
OVCAR-8 ovarian = tested on: OVCAR-8 ovarian
K-562 leukemia = tested on: K-562 leukemia
OVCAR-5 ovarian = tested on: OVCAR-5 ovarian
SW-620 colon = tested on: SW-620 colon
LOX IMVI melanoma = tested on: LOX IMVI melanoma
CAKI-1 renal = tested on: CAKI-1 renal
M14 melanoma = tested on: M14 melanoma
KM12 colon = tested on: KM12 colon
NCI-H226 lung = tested on: NCI-H226 lung
A549 NSCLC = tested on: A549 NSCLC
SF-268 CNS = tested on: SF-268 CNS
SN12C renal = tested on: SN12C renal
RPMI-8226 leukemia = tested on: RPMI-8226 leukemia
EKVX NSCLC = tested on: EKVX NSCLC
SR leukemia = tested on: SR leukemia
NCI/ADR-RES ovarian = tested on: NCI/ADR-RES ovarian
SNB-19 CNS = tested on: SNB-19 CNS
HOP-92 NSCLC = tested on: HOP-92 NSCLC
SF-295 CNS = tested on: SF-295 CNS
MCF7 breast = tested on: MCF7 breast
DU-145 prostate = tested on: DU-145 prostate
OVCAR-4 ovarian = tested on: OVCAR-4 ovarian
NCI-H522 lung = tested on: NCI-H522 lung
HCC-2998 colon = tested on: HCC-2998 colon
SNB-75 CNS = tested on: SNB-75 CNS
COLO 205 colon = tested on: COLO 205 colon
NCI-H460 lung = tested on: NCI-H460 lung
TK-10 renal = tested on: TK-10 renal
UACC-257 melanoma = tested on: UACC-257 melanoma
MALME-3M melanoma = tested on: MALME-3M melanoma
UO-31 renal = tested on: UO-31 renal
U251 CNS = tested on: U251 CNS
HS 578T breast = tested on: HS 578T breast
ACHN renal = tested on: ACHN renal
IGROV1 ovarian = tested on: IGROV1 ovarian
SK-MEL-5 melanoma = tested on: SK-MEL-5 melanoma
UACC-62 melanoma = tested on: UACC-62 melanoma
SF-539 CNS = tested on: SF-539 CNS
HT29 colon = tested on: HT29 colon
BT-549 breast = tested on: BT-549 breast
MDA-MB-231 breast = tested on: MDA-MB-231 breast

## COc1ccc(N(C)c2ncnc3occ(C)c23)cc1
HL-60(TB) leukemia
  GI50: < 10 nM
  TGI: < 10 nM
NCI-H23 lung
  GI50: < 10 nM
  TGI: > 100 µM
786-0 renal
  GI50: < 10 nM
  TGI: > 100000 nM
HOP-62 NSCLC
  TGI: > 100 µM
SK-OV-3 ovarian
  GI50: < 10 nM
  TGI: > 100000 nM
HCT-15 colon
  GI50: < 10 nM
SK-MEL-28 melanoma
  GI50: < 10 nM
  TGI: > 100 µM
SK-MEL-2 melanoma
  GI50: < 10 nM
  TGI: 58.7 µM
A498 renal
  GI50: < 10 nM
  TGI: < 10 nM
MOLT-4 leukemia
  GI50: < 10 nM
  TGI: 48.1 nM
HCT-116 colon
  GI50: < 10 nM
  TGI: 197 nM
PC-3 prostate
  GI50: < 10 nM
  TGI: > 51.8 µM
OVCAR-8 ovarian
  GI50: < 10 nM
  TGI: > 100 µM
K-562 leukemia
  GI50: < 10 nM
OVCAR-5 ovarian
  GI50: < 11.3 nM
  TGI: > 100 µM
SW-620 colon
  GI50: < 10 nM
  TGI: > 100 µM
LOX IMVI melanoma
  GI50: < 10 nM
  TGI: > 100000 nM
CAKI-1 renal
  GI50: < 10 nM
  TGI: > 100 µM
M14 melanoma
  GI50: < 10 nM
  TGI: > 100 µM
KM12 colon
  GI50: < 10 nM
NCI-H226 lung
  GI50: < 10 nM
  TGI: 76.1 nM
A549 NSCLC
  GI50: < 10 nM
  TGI: > 100 µM
SF-268 CNS
  GI50: 10.1 nM
  TGI: > 62.3 µM
SN12C renal
  GI50: < 10 nM
  TGI: > 100 µM
RPMI-8226 leukemia
  GI50: < 10 nM
  TGI: < 10 nM
EKVX NSCLC
  GI50: < 10 nM
  TGI: > 100 µM
SR leukemia
  GI50: < 10 nM
  TGI: 236 nM
NCI/ADR-RES ovarian
  GI50: < 10 nM
  TGI: > 100 µM
SNB-19 CNS
  GI50: < 10 nM
  TGI: > 100 µM
HOP-92 NSCLC
  GI50: 62.5 nM
  TGI: > 100 µM
SF-295 CNS
  GI50: < 10 nM
  TGI: > 100 µM
MCF7 breast
  GI50: < 10 nM
  TGI: > 100 µM
DU-145 prostate
  GI50: < 10 nM
  TGI: 20.8 nM
OVCAR-4 ovarian
  GI50: < 31.1 nM
  TGI: > 100000 nM
NCI-H522 lung
  GI50: < 10 nM
  TGI: < 10 nM
HCC-2998 colon
  GI50: < 10 nM
  TGI: 46.3 nM
SNB-75 CNS
  GI50: < 10 nM
  TGI: > 52 µM
COLO 205 colon
  GI50: < 10 nM
  TGI: < 10.5 nM
NCI-H460 lung
  GI50: < 10 nM
TK-10 renal
  GI50: 55.6 µM
  TGI: > 100 µM
UACC-257 melanoma
  GI50: 29.6 µM
  TGI: > 100000 nM
MALME-3M melanoma
  GI50: 38.7 µM
  TGI: > 100000 nM
UO-31 renal
  GI50: < 10 nM
  TGI: > 100 µM
U251 CNS
  GI50: < 10 nM
  TGI: 11.9 µM
HS 578T breast
  GI50: < 10 nM
  TGI: < 10 nM
ACHN renal
  GI50: 19.3 nM
  TGI: > 100 µM
IGROV1 ovarian
  GI50: < 10 nM
  TGI: > 100 µM
SK-MEL-5 melanoma
  GI50: < 10 nM
  TGI: < 14.9 nM
UACC-62 melanoma
  GI50: < 10 nM
  TGI: > 100 µM
SF-539 CNS
  GI50: < 10 nM
  TGI: < 10 nM
HT29 colon
  GI50: < 10 nM
  TGI: 16.3 µM
BT-549 breast
  GI50: < 24.4 nM
  TGI: > 62.4 µM

## Fc1c[c-]c(-c2ccccn2)c(F)c1.Fc1c[c-]c(-c2ccccn2)c(F)c1.[Cl][Pt+].[Cl][Pt+].c1ccc([PH+](C[PH+](c2ccccc2)c2ccccc2)c2ccccc2)cc1
HL-60(TB) leukemia
  GI50: 271 nM
  TGI: 813 nM
786-0 renal
  GI50: 184 nM
  TGI: 380 nM
SK-OV-3 ovarian
  GI50: 330 nM
  TGI: 910 nM
SK-MEL-2 melanoma
  GI50: 193 nM
  TGI: 0.479 µM
A498 renal
  GI50: 164 nM
  TGI: 461 nM
MOLT-4 leukemia
  GI50: 328 nM
K-562 leukemia
  GI50: 95.5 nM
  TGI: > 100 µM
LOX IMVI melanoma
  GI50: 380 nM
  TGI: 1380 nM
RPMI-8226 leukemia
  GI50: 80 nM
  TGI: 466 nM
MDA-MB-231 breast
  GI50: 139 nM
  TGI: 373 nM
OVCAR-4 ovarian
  GI50: 154 nM
  TGI: 977 nM
COLO 205 colon
  GI50: 132 nM
  TGI: 362 nM
UACC-257 melanoma
  GI50: 0.235 µM
  TGI: 815 nM
MALME-3M melanoma
  GI50: 0.264 µM
  TGI: 758 nM
U251 CNS
  GI50: 63 nM
  TGI: 0.218 µM
HS 578T breast
  GI50: 275 nM
  TGI: 1170 nM
SK-MEL-5 melanoma
  GI50: 164 nM
  TGI: 307 nM
